Holding throughout (test): Broth dilution MIC
Holding throughout (assay type): cell-based

Test [1] has as its system CNS GC 4537. To be noted: CNS GC 4537; Mueller-Hinton broth, 18 hours at 35° C.; read-out: Antimicrobial Activity (MIC). A digest of the protocol: (§1)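 Standard broth dilution: make serial dilutions of compound in Mueller-Hinton broth, add bacterial suspension, incubate 18 hours at 35° C., then record the lowest concentration inhibiting growth.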
For test [2], the system named is CNS GC 4538. To be noted: CNS GC 4538; Mueller-Hinton broth, 18 hours at 35° C.; read-out: Antimicrobial Activity (MIC). A digest of the protocol:
as §1

In test [3] the test system is CNS GC 4547. To be noted: CNS GC 4547; Mueller-Hinton broth, 18 hours at 35° C.; read-out: Antimicrobial Activity (MIC). A digest of the protocol: as §1
In test [4] the test system is E. cloacae GC 3783. To be noted: Enterobacter cloacae, GC3783; E. cloacae GC 3783; Mueller-Hinton broth, 18 hours at 35° C.; read-out: Antimicrobial Activity (MIC). A digest of the protocol: as §1
The subject of test [5] is E. coli GC 2203. The settings on record: Escherichia coli, GC2203; E. coli GC 2203; Mueller-Hinton broth, 18 hours at 35° C.; read-out: Antimicrobial Activity (MIC). A digest of the protocol: as §1
Test [6] deals with E. coli GC 3226. To be noted: Escherichia coli, GC3226; E. coli GC 3226; Mueller-Hinton broth, 18 hours at 35° C.; read-out: Antimicrobial Activity (MIC). A digest of the protocol: as §1
For test [7], the system named is E. coli GC 4559. The settings on record: Escherichia coli, GC4559; E. coli GC 4559; Mueller-Hinton broth, 18 hours at 35° C.; read-out: Antimicrobial Activity (MIC). An outline of the steps:
as §1

In test [8] the test system is E. coli GC 4560. To be noted: Escherichia coli, read-out: Antimicrobial Activity (MIC). An outline of the steps:
as §1

For test [9], the system named is E. faecalis GC 2242. The settings on record: Enterococcus faecalis, GC2242; E. faecalis GC 2242; Mueller-Hinton broth, 18 hours at 35° C.; read-out: Antimicrobial Activity (MIC). An outline of the steps:
as §1

Test [10] concerns E. faecalis GC 4555. The settings on record: Enterococcus faecalis, GC4555; E. faecalis GC 4555; Mueller-Hinton broth, 18 hours at 35° C.; read-out: Antimicrobial Activity (MIC). A digest of the protocol: as §1
Test [11] relates to E. faecalis GC 842. To be noted: Enterococcus faecalis, GC842; E. faecalis GC 842; Mueller-Hinton broth, 18 hours at 35° C.; read-out: Antimicrobial Activity (MIC). An outline of the steps: as §1
Test [12] relates to K. pneumoniae GC 4534. To be noted: Klebsiella pneumoniae, GC4534; K. pneumoniae GC 4534; Mueller-Hinton broth, 18 hours at 35° C.; read-out: Antimicrobial Activity (MIC). A digest of the protocol: as §1
Test [13] has as its system M. morganii GC 4531. To be noted: Morganella morganii, GC4531; M. morganii GC 4531; Mueller-Hinton broth, 18 hours at 35° C.; read-out: Antimicrobial Activity (MIC). An outline of the steps:
as §1

Test [14] relates to P. aeruginosa GC 2214. The settings on record: Pseudomonas aeruginosa, GC2214; P. aeruginosa GC 2214; Mueller-Hinton broth, 18 hours at 35° C.; read-out: Antimicrobial Activity (MIC). An outline of the steps: as §1
For test [15], the system named is P. aeruginosa GC 4532. The settings on record: Pseudomonas aeruginosa, GC4532; P. aeruginosa GC 4532; Mueller-Hinton broth, 18 hours at 35° C.; read-out: Antimicrobial Activity (MIC). An outline of the steps: as §1
In test [16] the test system is P. rettgeri GC 4530. To be noted: Providencia rettgeri, GC4530; P. rettgeri GC 4530; Mueller-Hinton broth, 18 hours at 35° C.; read-out: Antimicrobial Activity (MIC). An outline of the steps: as §1
Test [17] relates to S. aureus GC 1131. The settings on record: Staphylococcus aureus, GC1131; S. aureus GC 1131; Mueller-Hinton broth, 18 hours at 35° C.; read-out: Antimicrobial Activity (MIC). An outline of the steps: as §1
The test system of test [18] is S. aureus GC 2216. The settings on record: Staphylococcus aureus, GC2216; S. aureus GC 2216; Mueller-Hinton broth, 18 hours at 35° C.; read-out: Antimicrobial Activity (MIC). A digest of the protocol: as §1
For test [19], the system named is S. aureus GC 4536. To be noted: Staphylococcus aureus, GC4536; S. aureus GC 4536; Mueller-Hinton broth, 18 hours at 35° C.; read-out: Antimicrobial Activity (MIC). A digest of the protocol:
as §1

Test [20] deals with S. marcescens GC 4077. The settings on record: Serratia marcescens, GC4077; S. marcescens GC 4077; Mueller-Hinton broth, 18 hours at 35° C.; read-out: Antimicrobial Activity (MIC). A digest of the protocol: as §1

This note sets out measurements from patent US6727232B2, “Nucleoside peptide antibiotics of AA-896” (Wyeth Holdings Corporation, priority 2001, dated 2004).

Converted amounts (≈) assume the structure as drawn. Read-outs that look alike come from different tables or passages of the source.

The term MIC denotes the least concentration at which growth counts as inhibited. For `COC1C(O[C@H](C2C(=O)N(c3ccc(F)cc3)C(=O)N2CCCNC(=O)C(NC(=O)C(NC(=O)NC(C(=O)O)C(C)C)C2CCNC(=N)N2)C(O)C(C)C)[C@H]2O[C@@H](n3ccc(=O)[nH]c3=O)C(O)C2O)O[C@H](CNC(=O)Nc2ccc(F)cc2)C1O` (stereo partly drawn) [Example 12, 14-[5-((R)-{(2S,5R)-5-[2,4-Dioxo-3,4-dihydro-1 (2H)-pyrimidinyl]-3,4-dihydroxytetrahydro-2-furanyl}{[(5R)-4-hydroxy-3-methoxy-5-({[(4-fluoroanilino)carbonyl]amino}methyl)tetrahydro-2-furanyl]oxy}methyl)-3-(4-fluorophenyl)-2,4-dioxo-1-imidazolidinyl]-9-(1-hydroxy-2-methylpropyl)-6-(2-iminohexahydro-4-pyrimidinyl)-2-isopropyl-4,7,10-trioxo-3,5,8,11-tetraazatetradecan-1-oic Acid], the minimum inhibitory concentration (MIC) in [1], in test [2], in test [3], in [4], in test [5] and in test [6] was above 32 µg/mL in each case. Further, the minimal inhibitory concentration (MIC) in [7] is above 32 µg/mL; in test [8] (GC4560, E. coli GC 4560, Mueller-Hinton broth, 18 hours at 35° C.) it was above 32 µg/mL; in [9], above 32 µg/mL; in test [10], above 32 µg/mL; in test [11], above 32 µg/mL; in [12] it was above 32 µg/mL. For the same molecule, the minimal inhibitory concentration (MIC) in test [13], in test [14], in test [15], in test [16], in test [17] and in [18] was above 32 µg/mL in each case. The MIC in test [19] and in test [20] was above 32 µg/mL each time.

As to `CCCCCCCCCCCCN1C(=O)C([C@@H](OC2O[C@H](CN)[C@H](O)[C@H]2OC)[C@H]2O[C@@H](n3ccc(=O)[nH]c3=O)[C@H](O)[C@@H]2O)N(CCCNC(=O)C(NC(=O)C(NC(=O)NC(C(=O)O)C(C)C)C2CCNC(=N)N2)C(O)C(C)C)C1=O` (stereo partly drawn) [Example 5, 14-[5-((R)-{[(3R,4S,5R)-5-(Aminomethyl)-4-hydroxy-3-methoxytetrahydro-2-furanyl]oxy}{(2S,3S,4R,5R)-5-[2,4-dioxo-3,4-dihydro-1 (2H)-pyrimidinyl]-3,4-dihydroxytetrahydro-2-furanyl}methyl)-3-dodecyl-2,4-dioxo-1-imidazolidinyl]-9-(1-hydroxy-2-methylpropyl)-6-(2-iminohexahydro-4-pyrimidinyl)-2-isopropyl-4,7,10-trioxo-3,5,8,11-tetraazatetradecan-1-oic acid], the MIC in [1], in test [2], in test [3], in test [4], in test [5] and in [6] was above 32 µg/mL each time. For the same molecule, the minimum inhibitory concentration (MIC) in test [7] is above 32 µg/mL; in test [8] (GC4560, 18 h), 4 µg/mL (≈ 3.51 µM); in [9], above 32 µg/mL; in test [10], above 32 µg/mL; in test [11], above 32 µg/mL; in test [12] it was above 32 µg/mL. Moreover, the minimum inhibitory concentration (MIC) in [13], in test [14], in test [15], in [16], in [17] and in [18] was above 32 µg/mL each time. For the same molecule, the MIC in [19] and in test [20] was above 32 µg/mL each time.
